Assay [1] addresses T1, Interleukin-1 receptor-associated kinase 4 (Homo sapiens, UniProt Q9NWZ3).
T1 sequence (Q9NWZ3 whole entry): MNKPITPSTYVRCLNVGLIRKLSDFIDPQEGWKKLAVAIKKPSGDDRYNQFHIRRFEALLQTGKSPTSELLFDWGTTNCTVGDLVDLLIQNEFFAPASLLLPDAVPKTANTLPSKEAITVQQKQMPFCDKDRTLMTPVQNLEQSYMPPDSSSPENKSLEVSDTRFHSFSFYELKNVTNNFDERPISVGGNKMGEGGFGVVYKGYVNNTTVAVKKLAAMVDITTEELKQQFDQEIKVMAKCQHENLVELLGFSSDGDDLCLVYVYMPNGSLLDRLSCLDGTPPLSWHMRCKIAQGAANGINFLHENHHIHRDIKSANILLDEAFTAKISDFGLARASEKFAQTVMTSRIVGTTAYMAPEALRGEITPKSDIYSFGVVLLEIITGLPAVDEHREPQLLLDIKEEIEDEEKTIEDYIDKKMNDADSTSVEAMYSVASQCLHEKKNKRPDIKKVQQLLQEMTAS
The assay is described as follows: Inhibition of N-terminal GST-tagged human IRAK4 (2 to end residues) expressed in baculovirus infected Sf9 cells using Ser/Thr 7 peptide as substrate in presence of ATP after 1 hr by Z'-LYTE assay.

The target in assay [2] is T2, Protein cereblon/Interleukin-1 receptor-associated kinase 4 (Homo sapiens, UniProt Q9NWZ3+Q96SW2). The assay is described as follows: Protac activity at E3 ubiquitin ligase/IRAK4 in human MCF7 cells assessed as IRAK4 degradation after 24 hrs by Western blot analysis. It counts as cell-based. Background: A western blot detects proteins with antibodies after separation by electrophoresis.
Target sequence in this assay (Q96SW2 whole entry, one chain of several): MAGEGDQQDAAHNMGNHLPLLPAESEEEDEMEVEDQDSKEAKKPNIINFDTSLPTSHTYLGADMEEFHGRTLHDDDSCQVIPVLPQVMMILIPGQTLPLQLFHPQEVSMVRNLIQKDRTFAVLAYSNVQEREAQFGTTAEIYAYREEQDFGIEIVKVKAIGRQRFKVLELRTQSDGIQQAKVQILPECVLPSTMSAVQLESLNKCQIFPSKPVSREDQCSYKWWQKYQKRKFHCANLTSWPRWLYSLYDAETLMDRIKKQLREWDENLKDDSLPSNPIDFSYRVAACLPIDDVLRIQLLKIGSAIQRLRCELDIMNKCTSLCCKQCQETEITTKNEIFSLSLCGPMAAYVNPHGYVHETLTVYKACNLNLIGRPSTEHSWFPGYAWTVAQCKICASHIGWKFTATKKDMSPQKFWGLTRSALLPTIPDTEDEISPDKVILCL

Assay [3] addresses T2, Protein cereblon/Interleukin-1 receptor-associated kinase 4. The assay is described as follows: Protac activity at E3 ubiquitin ligase/IRAK4 in human MCF7 cells assessed as IRAK4 degradation after 24 hrs by Western blot analysis relative to control. Type of assay: cell-based.
Target sequence in this assay (Q96SW2 whole entry, looked up, one chain of several): as the sequence (Q96SW2 whole entry, one chain of several) above

A word on the IC50: it is the point on the concentration scale where inhibition reaches its midpoint. The DC50 is the concentration at which degradation of the target reaches its halfway point. As a reminder, the Emax is the greatest response seen or fitted, relative to the assay's reference.

The structures appear in SMILES notation. Bounds are passed on as bounds.

For the compound `O=C1CCC(N2C(=O)c3ccc(N4CCC(CN5CCN(Cc6ccc7c(c6)nc(NC(=O)c6cccc(C(F)(F)F)c6)n7[C@H]6CC[C@@H](CO)CC6)CC5)CC4)cc3C2=O)C(=O)N1` (stereo not given in full), the IC50 in assay [1] was below 30 nM. Besides, the half-maximal degradation concentration (DC50) in assay [2] is below 30 nM. Also, in assay [3], the Emax is above 70%.

`O=C1CCC(N2C(=O)c3ccc(OCCOCCOCCN4CCN(Cc5ccc6c(c5)nc(NC(=O)c5cccc(C(F)(F)F)c5)n6[C@H]5CC[C@@H](CO)CC5)CC4)cc3C2=O)C(=O)N1` (stereo not given in full): the IC50 in assay [1] was below 30 nM. Also, in assay [2], the DC50 is below 30 nM. In assay [3], the Emax is above 70%.

Take `O=C1CCC(N2C(=O)c3ccc(OC4CCC(CN5CCN(Cc6ccc7c(c6)nc(NC(=O)c6cccc(C(F)(F)F)c6)n7[C@H]6CC[C@@H](CO)CC6)CC5)CC4)cc3C2=O)C(=O)N1` (stereo not given in full): in assay [1], the 50% inhibitory concentration (IC50) was below 30 nM. In assay [2], the DC50 was in the range of 30 to 100 nM. Also, the Emax in assay [3] is above 70%.

Regarding `COc1cc2nn(C3CCN(CCOCCOc4ccc5c(c4)CN(C4CCC(=O)NC4=O)C5=O)CC3)cc2cc1NC(=O)c1cccc(C(F)(F)F)n1` (stereo not given), the IC50 in assay [1] is below 30 nM. In addition, the DC50 in assay [2] was below 30 nM. The Emax in assay [3] was above 50%.

On to `COc1cc2nn(C3CCN(CCOCCOc4ccc5c(c4)C(=O)N(C4CCC(=O)NC4=O)C5=O)CC3)cc2cc1NC(=O)c1cccc(C(F)(F)F)n1` (stereo not given), for which the IC50 in assay [1] is below 30 nM. Also, the DC50 in assay [2] is below 30 nM. Also, the Emax in assay [3] was above 50%.

The values above are taken from ChEMBL document CHEMBL4304808, “PROTAC Degradation of IRAK4 for the Treatment of Neurodegenerative and Cardiovascular Diseases” (ACS Med Chem Lett, 2019).
